The text below walks through data of patent publication US6201025A, “N-aralkylaminotetralins as ligands for the neuropeptide Y Y5 receptor” (Ortho-McNeil Pharmaceutical, Inc., priority 1999, dated 2001).

Series [1] addresses T1, human neuropeptide Y5 receptor (Homo sapiens, UniProt Q15761).
T1 construct: expressed in transfected cells; cell membranes
T1 sequence (Q15761 1-445): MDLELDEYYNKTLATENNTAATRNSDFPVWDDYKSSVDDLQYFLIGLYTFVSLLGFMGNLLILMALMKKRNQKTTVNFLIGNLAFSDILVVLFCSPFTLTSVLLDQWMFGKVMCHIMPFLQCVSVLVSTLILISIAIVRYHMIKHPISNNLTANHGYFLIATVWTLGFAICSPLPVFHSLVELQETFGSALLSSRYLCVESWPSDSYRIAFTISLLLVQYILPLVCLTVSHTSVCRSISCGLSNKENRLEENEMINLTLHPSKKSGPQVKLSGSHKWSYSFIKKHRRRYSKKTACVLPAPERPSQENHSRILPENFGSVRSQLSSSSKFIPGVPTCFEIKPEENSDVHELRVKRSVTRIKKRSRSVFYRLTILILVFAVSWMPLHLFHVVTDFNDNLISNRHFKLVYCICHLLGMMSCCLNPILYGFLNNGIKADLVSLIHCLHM
The series is described as follows: NPY5 HTS Centrifugation Assay: competition of 125I-PYY binding to membranes of NPY5-transfected HEK293 cells. To be noted: 80 pM 125I-PYY, human NPY Y5 receptor, 1 hr room temperature; for inhibition at 3 µM: read-out: % Inhibition of 125I-PYY Binding @ 3 uM; for inhibition at 30 µM: read-out: % Inhibition of 125I-PYY Binding @ 30 uM. Here is the method: The compounds described in this invention were evaluated for binding to the human neuropeptide Y5 receptor.
Stably transfected cells served as the source for the membranes for the NPY5 receptor binding assay.
NPY5-transfected HEK293 cells were grown to confluence in 150 cm^2 culture dishes. […] Cells were then incubated in phosphate-buffered saline without Calcium and without Magnesium, supplemented with 2 mM EDTA. Cells were incubated for 10 minutes at room temperature and the cells were collected by repetitive pipeting. Cells were formed into pellets and then frozen at -80° C. until needed. Frozen pellets were homogenized with a polytron at full speed for 12 seconds in a homogenization buffer (20 mM Tris HCl, 5 mM EDTA, pH 7.4). Homogenates were centrifuged for 5 minutes at 4° C. at 200 g. Supernatants were transferred to corex tubes and centrifuged for 25 minutes at 28,000 g. Pellets were re-suspended in Binding (20 mM HEPES, 10 mM NaCl, 0.22 mM KH2 PO4, 1.3 mM CaCl2, 0.8 mM MgSO4, pH 7.4). Membranes were kept on ice until use.
Compounds to be tested were prepared as 10x stocks in binding buffer and added first to assay tubes (RIA vials, Sarstedt). […] To each tube is added 100 μL of membranes and the mixture is agitated by pipeting 2 times. Samples are incubated for 1 hr at room temperature. Aluminum cast plates (Sarstedt) containing the vials are then centrifuged 10 minutes at 3200 rpm in a Sorvall RT6000. Supernatant is then aspirated. To each vial 400 μL PBS is added and this is then aspirated again. Vials are then put in carrier polypropylene 12×75 tube and counted in gamma counter (Packard). Non-specific binding is determined in the presence of 300 nM NPY.

Series [2] has as its system feeding in animals. To be noted: cited from earlier work.
The test system of series [3] is classic Y1 receptor. The settings on record: cited from earlier work.
Series [4] has as its system animal models of learning. The settings on record: cited from earlier work.
In series [5] the test system is live animals. To be noted: icv or into the amygdala; cited from earlier work.
In series [6] the test system is luteinizing hormone (LH). The settings on record: rodents; cited from earlier work.
The test system of series [7] is food intake in rats. To be noted: satiated rats; as little as one-billionth of a gram; cited from earlier work.
The subject of series [8] is rodents. The settings on record: intracerebroventricularly; cited from earlier work.
The test system of series [9] is forskolin-stimulated cAMP production/levels in a neuroblastoma cell line. The settings on record: cited from earlier work.

In general, inhibition refers to the relative decrease from the control value, in per cent. Turning to `COc1ccc(C[C@H]2c3ccc(OC)cc3CC[C@H]2NCCc2ccc(OC)c(OC)c2)cc1` (relative stereo) [Compound 34], in series [1], the inhibition at 3 µM amounted to 89% and the inhibition at 30 µM was found to be 103%.

Regarding `COc1ccc(CCN[C@@H]2CCc3ccccc3[C@@H]2Cc2ccccc2)cc1OC` (relative stereo) [Compound 35], in series [1], the inhibition at 3 µM is 47% and the inhibition at 30 µM stood at 99%.

With `COc1ccc2c(c1)CC[C@@H](NCCc1ccc(Oc3ccccc3)cc1)[C@H]2Cc1ccccc1` (relative stereo) [Compound 36], in series [1], the inhibition at 3 µM turned out to be 35% and the inhibition at 30 µM was determined as 87%.

Turning to `COCCOc1ccc(CCN[C@H]2CCc3cc(OC)ccc3[C@H]2Cc2ccccc2)cc1` (relative stereo) [Compound 37], in [1], the inhibition at 3 µM amounted to 84%.

NPY2-36: NPY fragment: the feeding response result in series [2] is “potent inducer of feeding”. For the same compound, in series [3], the “binding at the classic Y1 receptor” value was “poor binding”.

Regarding neuropeptide Y [NPY], the “memory and performance scores” value in series [4] is “improves memory and performance scores”. Also, in series [5], the “effect in animal models of anxiety” value is recorded as “produces anxiolytic effects”. Further, in [6], the “release of luteinizing hormone (LH)” value was “mediates endocrine functions such as the release of luteinizing hormone (LH)”. Moreover, in [7], the “effect on food intake, injected directly into the CNS” value was “causes satiated rats to overeat”. In series [8], the anxiogenic effect entry was “not anxiogenic”. In addition, the “effect on forskolin-stimulated cAMP production/levels” value in series [9] was “inhibits forskolin-stimulated cAMP production/levels”.
